Experimental data taken from US7138418B2, “Pentafluorobenzenesulfonamides and analogs” (Amgen, Inc., priority 1996, dated 2006).

Tested on: not given
Test: not given
Conditions: not given

Row | Compound | melting point
1 | COc1ccc(N(CCCCCO)S(=O)(=O)c2c(F)c(F)c(F)c(F)c2F)cc1 [Example 57, 4-Methoxy-1-(N-(5-hydroxypentyl)pentafluorophenylsulfonamido)benzene] | 96 to 97 °C
2 | COc1ccc(N(CCCC(O)CO)S(=O)(=O)c2c(F)c(F)c(F)c(F)c2F)cc1 (centres unmarked) [Example 55, 1-(N-(4,5-Dihydroxypentyl)pentafluorophenylsulfonamido)-4-methoxybenzene] | 116 to 118 °C
3 | COc1cc(Br)c(NS(=O)(=O)c2c(F)c(F)c(F)c(F)c2F)cc1F [Example 41, 1-Bromo-4-fluoro-5-methoxy-2-pentafluorophenylsulfonamidobenzene] | 109 °C
4 | COc1ccc(N(CCCCO)S(=O)(=O)c2c(F)c(F)c(F)c(F)c2F)cc1 [Example 56, 1-(N-(4-hydroxybutyl)pentafluorophenylsulfonamido)-4-methoxybenzene] | 88 to 90 °C
5 | COc1ccc(N(CCCCCO)S(=O)(=O)c2c(F)c(F)c(F)c(F)c2F)cc1O [Example 37, 2-Hydroxy-1-methoxy-4-(N-(5-hydroxypentyl)-pentafluorophenylsulfonamido)benzene] | 118 °C
6 | COc1ccc(N(CCC(O)CO)S(=O)(=O)c2c(F)c(F)c(F)c(F)c2F)cc1 (centres unmarked) [Example 54, 1-(N-(3,4-Dihydroxybutyl)pentafluorophenylsulfonamido)-4-methoxybenzene] | 126 to 128 °C

Next, values leading:

Row | melting point | Compound
7 | 130 to 131 °C | COc1ccc(N(CC(O)CO)S(=O)(=O)c2c(F)c(F)c(F)c(F)c2F)cc1 (centres unmarked) [Example 53, 1-(N-(2,3-Dihydroxypropyl)pentafluorophenylsulfonamido)-4-methoxybenzene]
8 | 64 to 66 °C | C=CCCN(c1ccc(OC)cc1)S(=O)(=O)c1c(F)c(F)c(F)c(F)c1F [Example 51, 1-(N-(3-Butenyl)pentafluorophenylsulfonamido)-4-methoxybenzene]
9 | 59 to 60 °C | C=CCN(c1ccc(OC)cc1)S(=O)(=O)c1c(F)c(F)c(F)c(F)c1F [Example 50, 4-Methoxy-1-(N-(2-propenyl)pentafluorophenylsulfonamido)benzene]
10 | 142 to 143 °C | COc1ccc(NS(=O)(=O)c2c(F)c(F)c(F)c(F)c2F)cc1N [Example 59, 3-Amino-4-methoxy-1-pentafluorophenylsulfonamidobenzene]
11 | 144 to 145 °C | O=S(=O)(Nc1ccc(Cl)nc1)c1c(F)c(F)c(F)c(F)c1F [Example 36, 2-Chloro-5-pentafluorophenylsulfonamidopyridine]
12 | 102 to 103 °C | COc1ccc(NS(=O)(=O)c2c(F)c(F)c(F)c(F)c2F)cc1 [Example 8, 4-Methoxy-1-pentafluorophenylsulfonamidobenzene]
13 | 121 to 123 °C | COc1ccc(NS(=O)(=O)c2c(F)c(F)c(F)c(F)c2F)cc1C(F)(F)F [Example 49, 4-Methoxy-1-pentafluorophenylsulfonamido-3-trifluoromethylbenzene]
14 | 95 to 97 °C | COc1ccc(NS(=O)(=O)c2c(F)c(F)c(F)c(F)c2F)cc1[N+](=O)[O-] [Example 58, 4-Methoxy-3-nitro-1-pentafluorophenylsulfonamidobenzene]

Tested on: LDL receptor expression in Hep G2 cells
Test: LDL receptor expression in Hep G2 cells by western-blot analysis
Assay type: cell-based
Conditions: Homo sapiens, HepG2, minimum concentration at which a maximal induction of LDL receptor was observed
Procedure: Compounds may be evaluated in vitro for their ability to increase LDL receptor expression using western-blot analysis, for example, as described in Tam et al. (1991) J. Biol. Chem. 266, 16764. Established animal models to evaluate hypocholesterolemic effects of compounds are known in the art. […] 81, 300; Evans et al. (1994) J. Lipid Res. 35, 1634; Lin et al (1995) J. Med. Chem. 38, 277.
Compounds were evaluated for their ability to increase LDL receptor expression in Hep G2 cells using western-blot analysis as described in Tam et al., J. Biol. Chem., 266, 16764 (1991).

Row | Compound | EC (max)
15 | CCN(CC)c1ccc(NS(=O)(=O)c2c(F)c(F)c(F)c(F)c2F)cc1 [Example 12, 4-(N,N-Diethylamino)-1-pentafluorophenylsulfonamidobenzene] | 5 µM
16 | O=S(=O)(Nc1cccc(O)c1)c1c(F)c(F)c(F)c(F)c1F [Example 9, 3-Hydroxy-1-pentafluorophenylsulfonamidobenzene] | 5 µM
17 | O=S(=O)(Nc1ccc(N2CCOCC2)cc1)c1c(F)c(F)c(F)c(F)c1F [Example 25, 4-(1-Morpholino)-1-pentafluorophenylsulfonamidobenzene] | 15 µM
18 | COc1cccc(NS(=O)(=O)c2c(F)c(F)c(F)c(F)c2F)c1 [Example 24, 3-Methoxy-1-pentafluorophenylsulfonamidobenzene] | 15 µM
19 | COc1ccc(NS(=O)(=O)c2c(F)c(F)c(F)c(F)c2F)cc1Br [Example 31, 2-Bromo-1-methoxy-4-pentafluorophenylsulfonamidobenzene] | ≤ 5 µM
20 | O=S(=O)(Nc1ccc2c(c1)OCCO2)c1c(F)c(F)c(F)c(F)c1F [Example 3, 1,2-Ethylenedioxy-4-pentafluorophenylsulfonamidobenzene] | 5 µM
21 | CN(C)c1cccc(NS(=O)(=O)c2c(F)c(F)c(F)c(F)c2F)c1 [Example 2, 3-(N,N-Dimethylamino)-1-pentafluorophenylsulfonamidobenzene] | 5 µM
22 | COc1ccc(NS(=O)(=O)c2c(F)c(F)c(F)c(F)c2F)cc1O [Example 6, 2-Hydroxy-1-methoxy-4-pentafluorophenylsulfonamidobenzene] | 0.15 µM
23 | O=S(=O)(Nc1ccc2c(c1)OCO2)c1c(F)c(F)c(F)c(F)c1F [Example 4, 1,2-Methylenedioxy-4-pentafluorophenylsulfonamidobenzene] | ≤ 5 µM
24 | COc1ccc(NS(=O)(=O)c2c(F)c(F)c(F)c(F)c2F)cc1 [Example 8, 4-Methoxy-1-pentafluorophenylsulfonamidobenzene] | 0.5 µM
25 | CN(C)c1ccc(NS(=O)(=O)c2c(F)c(F)c(F)c(F)c2F)cc1 [Example 1, 4-(N,N-Dimethylamino)-1-pentafluorophenylsulfonamidobenzene] | 0.5 µM
26 | COc1ccc(N(C)S(=O)(=O)c2c(F)c(F)c(F)c(F)c2F)cc1F [Example 30, 2-Fluoro-1-methoxy-4-(N-methylpentafluorophenylsulfonamido)benzene] | 15 µM
27 | COc1ccc(NS(=O)(=O)c2c(F)c(F)c(F)c(F)c2F)cc1Cl [Example 32, 2-Chloro-1-methoxy-4-pentafluorophenylsulfonamidobenzene] | 1.5 µM
28 | CN(C)c1ccc(N(C)S(=O)(=O)c2c(F)c(F)c(F)c(F)c2F)cc1 [Example 17, 4-(N,N-Dimethylamino)-1-(N-methylpentafluorophenylsulfonamido)benzene] | 5 µM
29 | O=S(=O)(Nc1ccc2[nH]ncc2c1)c1c(F)c(F)c(F)c(F)c1F [Example 15, 5-Pentafluorophenylsulfonamidoindazole] | 15 µM
